The NIST ThermoML archive (doi:10.1016/j.fluid.2014.10.002)
“And” between values parts separate entries of the source, which are not always exact repeats. Equal values may be shown once.

Settings: Liquid

CCCCC(CC)COC(=O)c1ccc(C(=O)OCC(CC)CCCC)c(C(=O)OCC(CC)CCCC)c1 (stereo unspecified) [tris(2-ethylhexyl) trimellitate]
Settings	viscosity
303.15 K, 980 kPa, Vibrating wire viscometry	158.5 mPa·s
303.15 K, 1030 kPa, Vibrating wire viscometry	158.4 mPa·s
303.15 K, 1080 kPa, Vibrating wire viscometry	158.9 mPa·s
303.15 K, 15060 kPa, Vibrating wire viscometry	220.6 mPa·s and 220.2 mPa·s
303.15 K, 29810 kPa, Vibrating wire viscometry	302.4 mPa·s and 302.1 mPa·s
303.15 K, 29820 kPa, Vibrating wire viscometry	303.1 mPa·s
303.16 K, 2820 kPa, Vibrating wire viscometry	165 mPa·s
303.16 K, 2850 kPa, Vibrating wire viscometry	165.1 mPa·s and 165.7 mPa·s
303.16 K, 5120 kPa, Vibrating wire viscometry	174.3 mPa·s
303.16 K, 5130 kPa, Vibrating wire viscometry	173.4 mPa·s and 173.8 mPa·s and 173.6 mPa·s
303.16 K, 7680 kPa, Vibrating wire viscometry	183.8 mPa·s [middle of 4 runs]
303.16 K, 7690 kPa, Vibrating wire viscometry	183.8 mPa·s
303.16 K, 9830 kPa, Vibrating wire viscometry	193.9 mPa·s
303.16 K, 9850 kPa, Vibrating wire viscometry	193.9 mPa·s
303.16 K, 9880 kPa, Vibrating wire viscometry	194.1 mPa·s
303.16 K, 19950 kPa, Vibrating wire viscometry	242.6 mPa·s
303.16 K, 19980 kPa, Vibrating wire viscometry	242.8 mPa·s
303.16 K, 19990 kPa, Vibrating wire viscometry	242.8 mPa·s
303.16 K, 20010 kPa, Vibrating wire viscometry	243.8 mPa·s
303.16 K, 29820 kPa, Vibrating wire viscometry	303.5 mPa·s and 303.8 mPa·s
303.16 K, 29830 kPa, Vibrating wire viscometry	302.3 mPa·s
303.16 K, 40160 kPa, Vibrating wire viscometry	369.8 mPa·s
303.16 K, 40170 kPa, Vibrating wire viscometry	370.5 mPa·s and 373.1 mPa·s and 370.9 mPa·s
303.16 K, 40180 kPa, Vibrating wire viscometry	373.2 mPa·s and 369.5 mPa·s
303.17 K, 101.33 kPa, Capillary tube (Ostwald / Ubbelohde) method	153.9 mPa·s
303.17 K, 50390 kPa, Vibrating wire viscometry	462.2 mPa·s
303.17 K, 50400 kPa, Vibrating wire viscometry	462.1 mPa·s [middle of 4 runs]
313.16 K, 1220 kPa, Vibrating wire viscometry	87.78 mPa·s
313.16 K, 1230 kPa, Vibrating wire viscometry	87.98 mPa·s
313.16 K, 1310 kPa, Vibrating wire viscometry	88.02 mPa·s
313.16 K, 1320 kPa, Vibrating wire viscometry	87.62 mPa·s and 87.55 mPa·s
313.16 K, 2780 kPa, Vibrating wire viscometry	90.52 mPa·s
313.16 K, 5160 kPa, Vibrating wire viscometry	96.14 mPa·s
313.16 K, 5170 kPa, Vibrating wire viscometry	96.24 mPa·s
313.16 K, 5190 kPa, Vibrating wire viscometry	96.26 mPa·s
313.16 K, 5210 kPa, Vibrating wire viscometry	95.79 mPa·s
313.16 K, 7710 kPa, Vibrating wire viscometry	101.6 mPa·s
313.16 K, 7780 kPa, Vibrating wire viscometry	101.7 mPa·s and 101.9 mPa·s and 101.4 mPa·s
313.16 K, 7790 kPa, Vibrating wire viscometry	101.3 mPa·s
313.16 K, 14800 kPa, Vibrating wire viscometry	117.6 mPa·s
313.16 K, 14820 kPa, Vibrating wire viscometry	117.4 mPa·s
313.16 K, 20040 kPa, Vibrating wire viscometry	132.4 mPa·s
313.16 K, 20050 kPa, Vibrating wire viscometry	131.6 mPa·s
313.16 K, 20060 kPa, Vibrating wire viscometry	131.6 mPa·s
313.16 K, 29930 kPa, Vibrating wire viscometry	159.8 mPa·s
313.16 K, 29970 kPa, Vibrating wire viscometry	160.2 mPa·s
313.16 K, 29980 kPa, Vibrating wire viscometry	159.8 mPa·s
313.16 K, 39960 kPa, Vibrating wire viscometry	197.4 mPa·s
313.16 K, 39980 kPa, Vibrating wire viscometry	197 mPa·s
313.16 K, 40000 kPa, Vibrating wire viscometry	196.9 mPa·s
313.16 K, 40020 kPa, Vibrating wire viscometry	196.6 mPa·s
313.16 K, 50020 kPa, Vibrating wire viscometry	239.1 mPa·s
313.16 K, 50040 kPa, Vibrating wire viscometry	240.3 mPa·s and 239.4 mPa·s
313.16 K, 50070 kPa, Vibrating wire viscometry	239.5 mPa·s
313.16 K, 50080 kPa, Vibrating wire viscometry	239.6 mPa·s
313.16 K, 50090 kPa, Vibrating wire viscometry	239.3 mPa·s
313.16 K, 65420 kPa, Vibrating wire viscometry	317.8 mPa·s
313.16 K, 65430 kPa, Vibrating wire viscometry	319 mPa·s
313.16 K, 65440 kPa, Vibrating wire viscometry	319.8 mPa·s
313.16 K, 65470 kPa, Vibrating wire viscometry	317.5 mPa·s
313.17 K, 2780 kPa, Vibrating wire viscometry	90.59 mPa·s and 90.6 mPa·s
313.17 K, 2790 kPa, Vibrating wire viscometry	90.29 mPa·s and 90.54 mPa·s
313.17 K, 2800 kPa, Vibrating wire viscometry	90.3 mPa·s
313.17 K, 5170 kPa, Vibrating wire viscometry	95.9 mPa·s
313.17 K, 14770 kPa, Vibrating wire viscometry	117 mPa·s
313.17 K, 20060 kPa, Vibrating wire viscometry	132 mPa·s
313.17 K, 29940 kPa, Vibrating wire viscometry	159.5 mPa·s
313.18 K, 101.33 kPa, Capillary tube (Ostwald / Ubbelohde) method	86.37 mPa·s
323.1 K, 101.33 kPa, Capillary tube (Ostwald / Ubbelohde) method	52.41 mPa·s
328.06 K, 101.33 kPa, Capillary tube (Ostwald / Ubbelohde) method	41.71 mPa·s
328.15 K, 2490 kPa, Vibrating wire viscometry	43.18 mPa·s
328.15 K, 2520 kPa, Vibrating wire viscometry	43.29 mPa·s
328.15 K, 5120 kPa, Vibrating wire viscometry	45.81 mPa·s
328.15 K, 7540 kPa, Vibrating wire viscometry	47.59 mPa·s
328.15 K, 7550 kPa, Vibrating wire viscometry	47.68 mPa·s
328.15 K, 7560 kPa, Vibrating wire viscometry	47.66 mPa·s
328.15 K, 10410 kPa, Vibrating wire viscometry	50.91 mPa·s
328.15 K, 10430 kPa, Vibrating wire viscometry	50.81 mPa·s
328.15 K, 15140 kPa, Vibrating wire viscometry	55.66 mPa·s
328.15 K, 20020 kPa, Vibrating wire viscometry	60.75 mPa·s
328.15 K, 20040 kPa, Vibrating wire viscometry	60.75 mPa·s and 60.87 mPa·s
328.15 K, 30400 kPa, Vibrating wire viscometry	74.44 mPa·s
328.15 K, 30410 kPa, Vibrating wire viscometry	74.65 mPa·s
328.15 K, 30420 kPa, Vibrating wire viscometry	74.52 mPa·s
328.15 K, 40610 kPa, Vibrating wire viscometry	89.47 mPa·s
328.15 K, 50030 kPa, Vibrating wire viscometry	105.8 mPa·s and 105.5 mPa·s and 105.9 mPa·s
328.15 K, 50040 kPa, Vibrating wire viscometry	105.5 mPa·s and 105.7 mPa·s
328.15 K, 50050 kPa, Vibrating wire viscometry	105.7 mPa·s
328.15 K, 50070 kPa, Vibrating wire viscometry	105.9 mPa·s
328.15 K, 50080 kPa, Vibrating wire viscometry	105.8 mPa·s
328.15 K, 65530 kPa, Vibrating wire viscometry	139.6 mPa·s
328.16 K, 1000 kPa, Vibrating wire viscometry	41.66 mPa·s
328.16 K, 1030 kPa, Vibrating wire viscometry	41.61 mPa·s and 41.82 mPa·s
328.16 K, 1050 kPa, Vibrating wire viscometry	41.76 mPa·s
328.16 K, 2510 kPa, Vibrating wire viscometry	43.2 mPa·s
328.16 K, 2520 kPa, Vibrating wire viscometry	43.23 mPa·s
328.16 K, 2530 kPa, Vibrating wire viscometry	43.31 mPa·s
328.16 K, 5100 kPa, Vibrating wire viscometry	45.73 mPa·s and 45.69 mPa·s
328.16 K, 5130 kPa, Vibrating wire viscometry	45.73 mPa·s and 45.72 mPa·s
328.16 K, 5140 kPa, Vibrating wire viscometry	45.67 mPa·s
328.16 K, 7580 kPa, Vibrating wire viscometry	47.76 mPa·s
328.16 K, 10390 kPa, Vibrating wire viscometry	50.78 mPa·s
328.16 K, 10400 kPa, Vibrating wire viscometry	50.84 mPa·s and 50.82 mPa·s
328.16 K, 10410 kPa, Vibrating wire viscometry	50.74 mPa·s
328.16 K, 15100 kPa, Vibrating wire viscometry	55.71 mPa·s
328.16 K, 15110 kPa, Vibrating wire viscometry	55.52 mPa·s
328.16 K, 15130 kPa, Vibrating wire viscometry	55.62 mPa·s
328.16 K, 20020 kPa, Vibrating wire viscometry	60.83 mPa·s
328.16 K, 20030 kPa, Vibrating wire viscometry	60.93 mPa·s
328.16 K, 30420 kPa, Vibrating wire viscometry	74.4 mPa·s
328.16 K, 40570 kPa, Vibrating wire viscometry	89.15 mPa·s
328.16 K, 40590 kPa, Vibrating wire viscometry	89.1 mPa·s
328.16 K, 40620 kPa, Vibrating wire viscometry	89.25 mPa·s
328.16 K, 50040 kPa, Vibrating wire viscometry	105.5 mPa·s
328.16 K, 65490 kPa, Vibrating wire viscometry	139.6 mPa·s
343.14 K, 1080 kPa, Vibrating wire viscometry	22.75 mPa·s
343.14 K, 10140 kPa, Vibrating wire viscometry	27.1 mPa·s
343.14 K, 10150 kPa, Vibrating wire viscometry	27.11 mPa·s and 27.07 mPa·s
343.14 K, 19890 kPa, Vibrating wire viscometry	32.41 mPa·s
343.14 K, 19900 kPa, Vibrating wire viscometry	32.35 mPa·s and 32.43 mPa·s
343.14 K, 19910 kPa, Vibrating wire viscometry	32.45 mPa·s
343.14 K, 19920 kPa, Vibrating wire viscometry	32.38 mPa·s
343.14 K, 19930 kPa, Vibrating wire viscometry	32.41 mPa·s
343.14 K, 30240 kPa, Vibrating wire viscometry	38.59 mPa·s
343.14 K, 30250 kPa, Vibrating wire viscometry	38.67 mPa·s and 38.63 mPa·s and 38.6 mPa·s
343.14 K, 30260 kPa, Vibrating wire viscometry	38.59 mPa·s
343.14 K, 40260 kPa, Vibrating wire viscometry	45.94 mPa·s
343.14 K, 40270 kPa, Vibrating wire viscometry	45.89 mPa·s and 45.83 mPa·s
343.14 K, 40280 kPa, Vibrating wire viscometry	45.91 mPa·s
343.14 K, 49840 kPa, Vibrating wire viscometry	53.72 mPa·s and 53.82 mPa·s
343.14 K, 49860 kPa, Vibrating wire viscometry	53.79 mPa·s
